Data reported in publication PMC9533326 (Cancer discovery, 2021).
Where two headings read alike, the source gives them in different places.

Legend:
relapsed/refractory ALL = settings: https://www.accessdata.fda.gov/drugsatfda_docs/label/2019/021877s010lbl.pdf; cited from earlier work
[1] = for Dose reduction due to TEAEs: 2 patients each; for Discontinuation due to study drug related AEs: all patients; for Drug discontinued due to TEAEs: all patients (venetoclax 11, navitoclax 12 patients)
[2] = parameters: species or system human; settings: in vivo; for Time post-dose at which Cmax was observed: human
[3] = earlier trial of navitoclax in lymphoid malignancies; cited from earlier work

Compound | Survival (median OS) reported in studies (relapsed/refractory ALL) [months] | Dose reduction due to TEAEs [1] [%] | Discontinuation due to study drug related AEs [1] [%] | Drug discontinued due to TEAEs [1] [%] | Time post-dose at which Cmax was observed [2] [h] | further results
COc1nc(N)nc2c1ncn2[C@@H]1O[C@H](CO)[C@@H](O)[C@@H]1O [nelarabine] | 4.7 |  |  |  |  | 
CC1(C)CCC(CN2CCN(c3ccc(C(=O)NS(=O)(=O)c4ccc(NCC5CCOCC5)c([N+](=O)[O-])c4)c(Oc4cnc5[nH]ccc5c4)c3)CC2)=C(c2ccc(Cl)cc2)C1 [Venetoclax, venetoclax] |  | 4.3 | 12.8 | 23.4 | 6 to 8 | Recommended phase II dose ([1]; adult-equivalent, with navitoclax 50 mg (adults) or 25 mg (<45 kg)): 400 mg; Events of laboratory TLS ([1]; quick ramp-up to 400 mg venetoclax): 2 events
inotuzumab ozogamicin | 7.7 |  |  |  |  | 
CC1(C)CCC(c2ccc(Cl)cc2)=C(CN2CCN(c3ccc(C(=O)NS(=O)(=O)c4ccc(N[C@H](CCN5CCOCC5)CSc5ccccc5)c(S(=O)(=O)C(F)(F)F)c4)cc3)CC2)C1 [Navitoclax, navitoclax] |  | 4.3 | 10.6 | 25.5 | 4 to 8 | Maximum tolerated dose [3]: 325 mg/day; Rate of grade 3/4 thrombocytopenia [3]: 52.7%; Recommended phase II dose (RPTD) ([1]; patients weighing <45 kg, in combination with 400 mg adult-equivalent venetoclax): 25 mg; Recommended phase II dose (RPTD) ([1]; patients weighing ≥45 kg (adults), in combination with 400 mg venetoclax): 50 mg; Impact on venetoclax pharmacokinetics [2]: no significant impact
blinatumomab: bispecific antibody | 7.7 |  |  |  |  | 
